One assay concerns the target DGKα (Homo sapiens, UniProt P23743). Nature of the assay: DGKα biochemical assay (ADP-Glo). The note with it: read-out: DGK α IC50. The method in brief:
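ADP-Glo kinase assay using OAG/PS (1:2) lipid substrate, sonicated, in HEPES pH 7.0 buffer with MgCl2, CaCl2, DTT, BSA, Triton X-100. Enzyme preincubated with compound 30 min at RT; substrate with ATP (DGKα: 400 μM) added, 45 min RT. Luminescence read; % inhibition vs DMSO and no-enzyme controls.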
For orientation: ADP-Glo first removes unused ATP, then detects ADP through luciferase.

The next assay deals with T1, DGKζ (Homo sapiens, UniProt Q13574).
T1 construct: purchased Carna 12-110
The assay is described as follows: DGKζ biochemical assay (ADP-Glo). The note with it: read-out: DGK ζ IC50.

The structures appear in SMILES notation. Some results are limits rather than exact numbers.

Chain of DGKα (P23743 whole entry): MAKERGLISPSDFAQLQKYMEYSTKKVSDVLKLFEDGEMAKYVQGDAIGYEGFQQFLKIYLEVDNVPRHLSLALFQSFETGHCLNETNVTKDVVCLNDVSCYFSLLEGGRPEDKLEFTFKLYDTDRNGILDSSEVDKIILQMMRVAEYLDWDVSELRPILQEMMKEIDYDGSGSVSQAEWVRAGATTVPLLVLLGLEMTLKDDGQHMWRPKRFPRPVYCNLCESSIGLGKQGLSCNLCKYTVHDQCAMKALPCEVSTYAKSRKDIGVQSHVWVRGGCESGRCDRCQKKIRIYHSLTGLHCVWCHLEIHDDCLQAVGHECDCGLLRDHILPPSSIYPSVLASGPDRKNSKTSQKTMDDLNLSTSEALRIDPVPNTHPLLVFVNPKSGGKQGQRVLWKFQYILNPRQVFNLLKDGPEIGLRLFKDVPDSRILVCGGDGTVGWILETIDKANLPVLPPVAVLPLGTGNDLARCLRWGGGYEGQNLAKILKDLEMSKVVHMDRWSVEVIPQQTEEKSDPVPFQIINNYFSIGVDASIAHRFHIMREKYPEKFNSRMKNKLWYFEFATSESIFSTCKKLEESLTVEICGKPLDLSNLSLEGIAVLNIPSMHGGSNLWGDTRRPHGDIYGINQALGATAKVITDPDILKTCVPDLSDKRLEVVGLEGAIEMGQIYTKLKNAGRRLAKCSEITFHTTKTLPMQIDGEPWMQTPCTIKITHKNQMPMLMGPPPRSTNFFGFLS
T1 sequence (Q13574 1-929 isoform Q13574-4): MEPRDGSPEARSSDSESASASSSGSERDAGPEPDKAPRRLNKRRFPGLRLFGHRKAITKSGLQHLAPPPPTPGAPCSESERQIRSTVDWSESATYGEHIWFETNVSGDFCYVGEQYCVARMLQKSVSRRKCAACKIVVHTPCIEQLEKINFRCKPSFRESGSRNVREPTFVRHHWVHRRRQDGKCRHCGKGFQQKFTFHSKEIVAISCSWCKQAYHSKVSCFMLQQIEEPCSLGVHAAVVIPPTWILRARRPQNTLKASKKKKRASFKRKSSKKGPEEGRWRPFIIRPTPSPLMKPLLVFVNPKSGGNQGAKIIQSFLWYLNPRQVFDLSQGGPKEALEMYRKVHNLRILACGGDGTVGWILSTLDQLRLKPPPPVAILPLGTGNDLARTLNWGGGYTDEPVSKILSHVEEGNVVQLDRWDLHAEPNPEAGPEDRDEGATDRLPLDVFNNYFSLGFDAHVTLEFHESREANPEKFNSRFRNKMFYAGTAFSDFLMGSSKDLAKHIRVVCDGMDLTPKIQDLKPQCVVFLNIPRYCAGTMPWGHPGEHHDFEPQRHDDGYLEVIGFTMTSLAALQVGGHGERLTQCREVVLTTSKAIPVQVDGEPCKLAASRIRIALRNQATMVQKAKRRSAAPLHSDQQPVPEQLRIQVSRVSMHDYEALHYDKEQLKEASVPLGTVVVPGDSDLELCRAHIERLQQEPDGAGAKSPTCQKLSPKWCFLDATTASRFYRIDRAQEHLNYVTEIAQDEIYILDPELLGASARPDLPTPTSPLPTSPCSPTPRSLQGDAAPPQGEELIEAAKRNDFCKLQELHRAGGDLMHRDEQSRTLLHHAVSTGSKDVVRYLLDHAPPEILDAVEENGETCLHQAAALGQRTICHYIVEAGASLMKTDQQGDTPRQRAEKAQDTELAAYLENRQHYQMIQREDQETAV

As to `Cn1c(=O)c(C#N)c(N(C)[C@H]2CC[C@H](N(CC3CC3)c3cccc(F)c3)CC2)c2nc(C#N)ccc21` [Example 27, trans-8-((4-((cyclopropylmethyl)(3-fluorophenyl)amino)cyclohexyl)(methyl)amino)-5-methyl-6-oxo-5,6-dihydro-1,5-naphthyridine-2,7-dicarbonitrile], the 50% inhibitory concentration (IC50) at DGKα and on DGKζ was 100 to 1000 nM in each case.
Take `Cn1c(=O)c(C#N)c(N(C)[C@H]2CC[C@H](N(CC3CC3)c3cc4c(cn3)OCO4)CC2)c2nc(C#N)ccc21` [Example 212, trans-8-((-4-([1,3]dioxolo[4,5-c]pyridin-6-yl(cyclopropylmethyl)amino)cyclohexyl)(methyl)amino)-5-methyl-6-oxo-5,6-dihydro-1,5-naphthyridine-2,7-dicarbonitrile]: the IC50 on DGKα and at DGKζ was no less than 1000 nM each time.
As to `Cn1c(=O)c(C#N)c(N(C)[C@H]2CC[C@@H](N(c3ccc(F)cc3)C3CCC3)CC2)c2nc(Cl)ccc21` [Example 10, cis-6-chloro-4-((4-(cyclobutyl(4-fluorophenyl)amino)cyclohexyl)(methyl)amino)-1-methyl-2-oxo-1,2-dihydro-1,5-naphthyridine-3-carbonitrile], the IC50 (commonly the concentration that gives 50% inhibition) on DGKα was less than 10 nM; on DGKζ it was 100 to 1000 nM.
With `Cc1[nH]c2ccccc2c1C(=O)N[C@H]1CC[C@H](N(CC2(C)COC2)c2ccccc2)CC1` [Example 4E, trans-2-Methyl-N-(4-(((3-methyloxetan-3-yl)methyl)(phenyl)amino)cyclohexyl)-1H-indole-3-carboxamide], the IC50 at DGKα and on DGKζ was no less than 1000 nM in each case.
For the molecule `Cn1c(=O)c(F)c(N(C)[C@H]2CC[C@@H](N(CC3COCCO3)c3ccc(F)cc3)CC2)c2nc(C#N)ccc21` (stereo partly drawn) [Example 203, cis-8-((-4-(((1,4-dioxan-2-yl)methyl)(4-fluorophenyl)amino)cyclohexyl)(methyl)amino)-7-fluoro-5-methyl-6-oxo-5,6-dihydro-1,5-naphthyridine-2-carbonitrile], the IC50 on DGKα was less than 10 nM; on DGKζ, 100 to 1000 nM.
Taken in the same sequence, the figures for `Cn1c(=O)c(C#N)c(N(C)[C@H]2CC[C@@H](N(CC3CC3)c3ccc(Cl)cc3)CC2)c2ncccc21` [Example 8, cis-4-((4-((4-chlorophenyl)(cyclopropylmethyl)amino)cyclohexyl)(methyl)amino)-1-methyl-2-oxo-1,2-dihydro-1,5-naphthyridine-3-carbonitrile] were 10 to 100 nM and no less than 1000 nM.
For the molecule `Cc1cc(F)ccc1N(C[C@@H]1CCCO1)[C@H]1CC[C@H](N(C)c2c(C#N)c(=O)n(C)c3ccc(C#N)nc23)CC1` [Example 168, trans-8-((-4-((4-fluoro-2-methylphenyl)(((S)-tetrahydrofuran-2-yl)methyl)amino)cyclohexyl) (methyl)amino)-5-methyl-6-oxo-5,6-dihydro-1,5-naphthyridine-2,7-dicarbonitrile], the half-inhibitory concentration (IC50) on DGKα is no less than 1000 nM; at DGKζ it was 100 to 1000 nM.
The corresponding values for `Cn1c(=O)c(C#N)c(N(C)[C@H]2CC[C@@H](N(C[C@H]3C[C@H](O)C3)c3ccc(F)cc3)CC2)c2nc(C#N)ccc21` [Example 201, cis-8-((-4-((4-fluorophenyl)((trans-3-hydroxycyclobutyl)methyl)amino)cyclohexyl) (methyl)amino)-5-methyl-6-oxo-5,6-dihydro-1,5-naphthyridine-2,7-dicarbonitrile] are less than 10 nM and no less than 1000 nM.
The corresponding values for `CN1C(=O)CN([C@H]2CC[C@@H](N(CC3CC3)c3ccccc3)CC2)c2nc(C#N)ccc21` [Example 2C, cis-4-[4-[N-(Cyclopropylmethyl)anilino]cyclohexyl]-1-methyl-2-oxo-3H-pyrido[2,3-b]pyrazine-6-carbonitrile] are 100 to 1000 nM and no less than 1000 nM.
Taken in the same sequence, the figures for `COc1cccc(N(CC2CC2)[C@H]2CC[C@@H](N(C)c3c(C#N)c(=O)n(C)c4cccnc34)CC2)c1` [Example 15, cis-4-((4-((cyclopropylmethyl)(3-methoxyphenyl)amino)cyclohexyl)(methyl)amino)-1-methyl-2-oxo-1,2-dihydro-1,5-naphthyridine-3-carbonitrile] were 100 to 1000 nM and no less than 1000 nM.
In the case of `Cn1c(=O)c(C#N)c(N(C)[C@H]2CC[C@@H](N(CC3CC3)c3cccc(F)c3)CC2)c2nc(Cl)ccc21` [Example 22, cis-6-chloro-4-((4-((cyclopropylmethyl)(3-fluorophenyl)amino)cyclohexyl)(methyl)amino)-1-methyl-2-oxo-1,2-dihydro-1,5-naphthyridine-3-carbonitrile], the IC50 at DGKα and on DGKζ was no less than 1000 nM in each case.
As for `COc1cc(F)ccc1N(C)[C@H]1CC[C@@H](N(C)c2c(C#N)c(=O)n(C)c3ccc(Cl)nc23)CC1` [Example 45, cis-6-chloro-4-((4-((4-fluoro-2-methoxyphenyl) (methyl)amino)cyclohexyl)(methyl)amino)-1-methyl-2-oxo-1,2-dihydro-1,5-naphthyridine-3-carbonitrile], the IC50 on DGKα was in the range of 10 to 100 nM; at DGKζ, 100 to 1000 nM.
Taken in the same sequence, the figures for `Cc1cc(N(CC2CCC2)[C@H]2CC[C@@H](N(C)c3c(C#N)c(=O)n(C)c4ccc(C#N)nc34)CC2)ccc1F` [Example 91] were less than 10 nM and 10 to 100 nM.
The corresponding values for `Cn1c(=O)c(C#N)c(N(C)[C@H]2CC[C@@H](N(c3ccc(F)cc3F)C3CC3)CC2)c2nc(Cl)ccc21` [Example 3CC, cis-6-Chloro-4-[[4-(N-cyclopropyl-2,4-difluoro-anilino)cyclohexyl]-methyl-amino]-1-methyl-2-oxo-1,5-naphthyridine-3-carbonitrile] are 100 to 1000 nM and no less than 1000 nM.
Consider `Cn1c(=O)c(C#N)c(N(C)[C@H]2CC[C@@H](N(CC3CCC3)c3cc4c(cc3F)OCO4)CC2)c2nc(C#N)ccc21` [Example 160, cis-8-((-4-((cyclobutylmethyl)(6-fluorobenzo[d][1,3]dioxol-5-yl)amino)cyclohexyl)(methyl)amino)-5-methyl-6-oxo-5,6-dihydro-1,5-naphthyridine-2,7-dicarbonitrile], for which the IC50 was less than 10 nM at DGKα and 10 to 100 nM at DGKζ.
The corresponding values for `CN1C(=O)CN([C@H]2CC[C@H](N(CC3CC3)c3ccccc3)CC2)c2nc(C#N)ccc21` [Example 2A, trans-4-[4-[N-(Cyclopropylmethyl)anilino]cyclohexyl]-1-methyl-2-oxo-3H-pyrido[2,3-b]pyrazine-6-carbonitrile] are 10 to 100 nM and no less than 1000 nM.
Taken in the same sequence, the figures for `Cc1cc2c(cc1N(CC1CCC1)[C@H]1CC[C@@H](N(C)c3c(C#N)c(=O)n(C)c4ccc(Cl)nc34)CC1)OCO2` [Example 151, cis-6-chloro-4-((4-((cyclobutylmethyl)(6-methylbenzo[d][1,3]dioxol-5-yl)amino)cyclohexyl) (methyl)amino)-1-methyl-2-oxo-1,2-dihydro-1,5-naphthyridine-3-carbonitrile] were no less than 1000 nM and no less than 1000 nM.
The corresponding values for `Cn1c(=O)c(C#N)c(N(C)[C@H]2CC[C@H](N(CC3CCC3)c3ccc(F)cc3CO)CC2)c2nc(C#N)ccc21` [Example 155, trans-8-((4-((cyclobutylmethyl)(4-fluoro-2-(hydroxymethyl)phenyl)amino)cyclohexyl)(methyl)amino)-5-methyl-6-oxo-5,6-dihydro-1,5-naphthyridine-2,7-dicarbonitrile] are 10 to 100 nM and 10 to 100 nM.
Regarding `Cn1c(=O)c(C#N)c(N(C)[C@H]2CC[C@@H](N(CC3CCOC3)c3ccc(F)c(OC(F)F)c3)CC2)c2nc(C#N)ccc21` (stereo partly drawn) [Example 158, cis-8-((-4-((3-(difluoromethoxy)-4-fluorophenyl) ((tetrahydrofuran-3-yl)methyl)amino)cyclohexyl) (methyl)amino)-5-methyl-6-oxo-5,6-dihydro-1,5-naphthyridine-2,7-dicarbonitrile], the 50% inhibitory concentration (IC50) at DGKα and on DGKζ was 10 to 100 nM each time.
Consider `Cn1c(=O)cc(N(C)[C@H]2CC[C@@H](N(CC3CCC3)c3ccc4c(c3)OC(F)(F)O4)CC2)c2nc(C#N)ccc21` [Example 133, cis-8-((-4-((cyclobutylmethyl)(2,2-difluorobenzo[d] [1,3]dioxol-5-yl)amino)cyclohexyl)(methyl)amino)-5-methyl-6-oxo-5,6-dihydro-1,5-naphthyridine-2-carbonitrile], for which the results for the IC50 at DGKα and on DGKζ were 10 to 100 nM and 100 to 1000 nM, respectively.
With `COc1ccc(N(C2CC2)[C@H]2CC[C@H](N(C)c3c(C#N)c(=O)n(C)c4ccc(Cl)nc34)CC2)cc1` [Example 3E, trans-6-chloro-4-((4-(cyclopropyl(4-methoxyphenyl)amino)cyclohexyl)(methyl)amino)-1-methyl-2-oxo-1,2-dihydro-1,5-naphthyridine-3-carbonitrile], the concentration for half-maximal inhibition (IC50) was 10 to 100 nM on DGKα and no less than 1000 nM at DGKζ.
The corresponding values for `Cn1c(=O)cc(N(C)[C@H]2CC[C@@H](N(C(=O)C3CC3)c3ccc(F)cc3)CC2)c2nc(C#N)ccc21` [Example 208, cis-N-(4-((6-cyano-1-methyl-2-oxo-1,2-dihydro-1,5-naphthyridin-4-yl)(methyl)amino)cyclohexyl)-N-(4-fluorophenyl)cyclopropanecarboxamide] are 100 to 1000 nM and no less than 1000 nM.
Taken in the same sequence, the figures for `Cn1c(=O)c(C#N)c(N(C)[C@H]2CC[C@@H](N(CC3CCC3)c3ccc4c(c3)OCCO4)CC2)c2nc(C#N)ccc21` [Example 170, cis-8-((4-((cyclobutylmethyl)(2,3-dihydrobenzo[b] [1,4]dioxin-6-yl)amino)cyclohexyl)(methyl)amino)-5-methyl-6-oxo-5,6-dihydro-1,5-naphthyridine-2,7-dicarbonitrile] were 10 to 100 nM and 10 to 100 nM.
Taken in the same sequence, the figures for `Cc1cc(F)cc(N(CC2CC2)[C@H]2CC[C@H](N(C)c3cc(=O)n(C)c4ccc(C#N)nc34)CC2)c1` [Example 89] were no less than 1000 nM and no less than 1000 nM.
